Assay [1] deals with T1, c-Kit kinase (SEQ ID NO:9) (Homo sapiens, UniProt P10721).
T1 construct: contained c-Kit (cKIT residues T544-V976, from ProQinase, 5.4 nM); purchased ProQinase
The assay can be described thus: C-Kit kinase (SEQ ID NO:9) assay, pyruvate kinase/lactate dehydrogenase coupled. As to conditions: <2 min preincubation, ATP 200 μM; read-out: Biochemical IC50, c-Kit Enzyme Assay. The protocol:
C-Kit Kinase (SEQ ID NO:9) Assay
Activity of c-Kit kinase (SEQ ID NO:9) was determined by following the production of ADP from the kinase reaction through coupling with the pyruvate kinase/lactate dehydrogenase system (e.g., Schindler, et al. Science (2000) 289, 1938-1942). In this assay, the oxidation of NADH (thus the decrease at A340 nm) was continuously monitored spectrophometrically. The reaction mixture (100 μl) contained c-Kit (cKIT residues T544-V976, from ProQinase, 5.4 nM), polyE4Y (1 mg/ml), MgCl2 (10 mM), pyruvate kinase (4 units), lactate dehydrogenase (0.7 units), phosphoenol pyruvate (1 mM), and NADH (0.28 mM) in 90 mM Tris buffer containing 0.2% octyl-glucoside and 1% DMSO, pH 7.5. Test compounds were incubated with […] (SEQ ID NO:9) and other reaction reagents at 22° C. for <2 min before ATP (200 μM) was added to start the reaction. The absorption at 340 nm was monitored continuously for 0.5 hours at 30° C. on Polarstar Optima plate reader (BMG). The reaction rate was calculated using the 0 to 0.5 h time frame. Percent inhibition was obtained by comparison of reaction rate with that of a control (i.e. with no test compound). IC50 values were calculated from a series of percent inhibition values determined at a range of inhibitor concentrations using software routines as implemented in the GraphPad Prism software package.

The target of assay [2] is T2, BaF3 cells transfected with wild type p210 BCR-Abl (Homo sapiens, UniProt P00519).
T2 construct: fused on or other part: P11274 (Breakpoint cluster region protein)
Kind of assay: Ba/F3 p210 whole cell proliferation assay. The conditions noted are these: 72 hours, Cell Titer Blue; read-out: Whole Cell Antiproliferation IC50, Ba/F3 p210 whole cell proliferation assay. Format: cell-based. In general terms: Resazurin is reduced to fluorescent resorufin, in cell work by metabolically active cells.

Assay [3] has as its target T3, Abl kinase (SEQ ID NO: 1) (Homo sapiens, UniProt P00519).
T3 construct: purchased deCode Genetics
T3 sequence (P00519 with tags, fused parts or gaps): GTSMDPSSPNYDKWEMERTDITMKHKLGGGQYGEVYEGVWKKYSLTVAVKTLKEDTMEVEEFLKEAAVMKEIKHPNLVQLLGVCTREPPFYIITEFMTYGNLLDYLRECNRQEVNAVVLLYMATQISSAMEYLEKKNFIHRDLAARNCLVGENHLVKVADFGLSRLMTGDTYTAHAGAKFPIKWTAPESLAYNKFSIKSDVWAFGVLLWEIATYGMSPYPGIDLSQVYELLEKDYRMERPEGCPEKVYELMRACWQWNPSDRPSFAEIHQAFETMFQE
Kind of assay: Abl kinase (SEQ ID NO:1) assay, pyruvate kinase/lactate dehydrogenase coupled. The conditions noted are these: 2 h preincubation, ATP 500 μM; read-out: Biochemical IC50, Abl Enzyme Assay. The gist of the method: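 ADP formation was coupled to pyruvate kinase/lactate dehydrogenase, and NADH loss at 340 nm was followed continuously. Compounds were preincubated 2 h at 30° C before 500 μM ATP, and rates from 1.0–2.0 h gave % inhibition and IC50.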

The target of assay [4] is T4, BaF3 cells transfected with T315I p210 BCR-Abl (Homo sapiens, UniProt P00519, T315I, cells depend on it).
T4 construct: fused on or other part: P11274 (Breakpoint cluster region protein)
The assay can be described thus: Ba/F3 p210 T315I whole cell proliferation assay. Format: cell-based. The conditions noted are these: 72 hours, Cell Titer Blue; read-out: Whole Cell Antiproliferation IC50, Ba/F3 p210 T315I whole cell proliferation assay.

Where only a bound is given, the exact number is not on record here.

T1 sequence (P10721 with tags, fused parts or gaps): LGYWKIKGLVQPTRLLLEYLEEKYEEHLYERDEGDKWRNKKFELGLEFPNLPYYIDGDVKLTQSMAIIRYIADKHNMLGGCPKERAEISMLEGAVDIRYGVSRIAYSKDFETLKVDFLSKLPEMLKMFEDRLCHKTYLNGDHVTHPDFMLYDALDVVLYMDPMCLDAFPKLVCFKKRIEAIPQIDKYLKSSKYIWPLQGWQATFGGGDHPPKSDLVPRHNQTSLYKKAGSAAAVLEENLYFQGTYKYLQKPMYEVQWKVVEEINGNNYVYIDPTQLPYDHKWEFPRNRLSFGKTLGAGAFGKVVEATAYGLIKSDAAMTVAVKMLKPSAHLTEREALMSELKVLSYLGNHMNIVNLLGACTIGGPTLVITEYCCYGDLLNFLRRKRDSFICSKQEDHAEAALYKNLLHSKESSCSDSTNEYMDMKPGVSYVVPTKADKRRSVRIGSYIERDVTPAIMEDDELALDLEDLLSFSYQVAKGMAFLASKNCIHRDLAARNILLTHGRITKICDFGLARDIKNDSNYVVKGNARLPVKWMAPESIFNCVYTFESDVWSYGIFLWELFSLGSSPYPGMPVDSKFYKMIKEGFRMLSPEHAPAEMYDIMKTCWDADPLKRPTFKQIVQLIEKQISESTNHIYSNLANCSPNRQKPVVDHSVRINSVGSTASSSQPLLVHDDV

Turning to `Cn1cc(-c2cc(Oc3ccc(NC(=O)Nc4cc(C(C)(C)C)no4)c(F)c3F)ccn2)cn1` [Example 25, 1-(3-tert-butylisoxazol-5-yl)-3-(2,3-difluoro-4-(2-(1-methyl-1H-pyrazol-4-yl)pyridin-4-yloxy)phenyl)urea], the concentration for half-maximal inhibition (IC50) in assay [1] and in assay [3] was less than 0.1 µM each time. The GI50 in assay [2] and in assay [4] was less than 0.1 µM in each case.
With `Cn1cc(-c2cc(Oc3ccc(NC(=O)Nc4nnc(C(C)(C)C)s4)c(F)c3)ccn2)cn1` [Example 11, 1-(5-tert-butyl-1,3,4-thiadiazol-2-yl)-3-(2-fluoro-4-(2-(1-methyl-1H-pyrazol-4-yl)pyridin-4-yloxy)phenyl)urea], the half-maximal inhibitory concentration (IC50) in assay [1] and in assay [3] was less than 0.1 µM throughout. In addition, the GI50 in assay [2] and in assay [4] was less than 0.1 µM each time.
On to `Cc1c(NC(=O)Nc2ccc(Oc3ccnc(-c4cnn(C)c4)c3)cc2F)cnn1C(C)(C)C` [Example 10, 1-(1-tert-butyl-5-methyl-1H-pyrazol-4-yl)-3-(2-fluoro-4-(2-(1-methyl-1H-pyrazol-4-yl)pyridin-4-yloxy)phenyl)urea], for which the half-inhibitory concentration (IC50) in assay [1] and in assay [3] was less than 0.1 µM each time. Further, the GI50 was less than 0.1 µM in assay [2] and less than 1 µM in assay [4].
Take `Cn1cc(-c2cc(Oc3ccc(NC(=O)Nc4cnn(C(C)(C)C)c4)c(F)c3F)ccn2)cn1` [Example 8, 1-(1-tert-butyl-1H-pyrazol-4-yl)-3-(2,3-difluoro-4-(2-(1-methyl-1H-pyrazol-4-yl)pyridin-4-yloxy)phenyl)urea]: the IC50 in assay [1] and in assay [3] was less than 0.1 µM each time. The GI50 in assay [2] and in assay [4] was less than 0.1 µM in each case.
For the compound `Cn1cc(-c2cc(Oc3ccc(NC(=O)Nc4cnn(C(C)(C)C)c4C(F)(F)F)c(F)c3)ccn2)cn1` [Example 9, 1-(1-tert-butyl-5-(trifluoromethyl)-1H-pyrazol-4-yl)-3-(2-fluoro-4-(2-(1-methyl-1H-pyrazol-4-yl)pyridin-4-yloxy)phenyl)urea], the IC50 in assay [1] and in assay [3] was less than 0.1 µM in each case. Further, the GI50 in assay [2] is less than 0.1 µM; in assay [4], less than 1 µM.
With `Cn1cc(-c2cc(Oc3ccc(NC(=O)Nc4cncc(C(F)(F)F)c4)cc3)ccn2)cn1` [Example 6, 1-(4-(2-(1-methyl-1H-pyrazol-4-yl)pyridin-4-yloxy)phenyl)-3-(5-(trifluoromethyl)pyridin-3-yl)urea], the concentration for half-maximal inhibition (IC50) in assay [1] and in assay [3] was less than 0.1 µM in each case. Also, the GI50 in assay [2] and in assay [4] was less than 0.1 µM in each case.
On to `Cn1cc(-c2cc(Oc3ccc(NC(=O)Nc4cccc(C(F)(F)F)c4)c(F)c3)ccn2)cn1` [Example 3, 1-(2-fluoro-4-(2-(1-methyl-1H-pyrazol-4-yl)pyridin-4-yloxy)phenyl)-3-(3-(trifluoromethyl)phenyl)urea], for which the 50% inhibitory concentration (IC50) in assay [1] and in assay [3] was less than 0.1 µM throughout. Also, the GI50 in assay [2] and in assay [4] was less than 0.1 µM in each case.
As for `Cn1cc(-c2cc(Oc3ccc(NC(=O)Nc4cc(C(F)(F)F)c[nH]c4=O)c(F)c3)ccn2)cn1` [Example 27, 1-(2-fluoro-4-(2-(1-methyl-1H-pyrazol-4-yl)pyridin-4-yloxy)phenyl)-3-(2-oxo-5-(trifluoromethyl)-1,2-dihydropyridin-3-yl)urea], the IC50 in assay [1] and in assay [3] was less than 0.1 µM in each case. Moreover, the GI50 in assay [2] and in assay [4] was less than 0.1 µM each time.
In the case of `Cn1cc(-c2cc(Oc3ccc(NC(=O)Nc4cnc(C(C)(C)C)nc4N4CCOCC4)c(F)c3)ccn2)cn1` [Example 41, 1-(2-tert-butyl-4-morpholinopyrimidin-5-yl)-3-(2-fluoro-4-(2-(1-methyl-1H-pyrazol-4-yl)pyridin-4-yloxy)phenyl)urea], the results for the IC50 in assay [1] and in assay [3] were less than 100 µM and less than 1 µM, respectively. For the same compound, the GI50 in assay [2] and in assay [4] was less than 1 µM each time.

The values are drawn from patent US8143293B2, “Kinase inhibitors useful for the treatment of myleoprolific diseases and other proliferative diseases” (Deciphera Pharmaceuticals, LLC, priority 2007, dated 2012).
